Measured values reported in patent publication US10730892B2, “Homoallylamines as formaldehyde-responsive triggers” (The Regents of the University of California, priority 2015, dated 2020).
“And” between values parts separate entries of the source, which are not always exact repeats. Equal entries are not always repeated. Where two headings read alike, the source gives them in different places.

Experiments:
[1] = for fold increase in fluorescence intensity: 3 h
Method: All experiments were performed at 37° C. for 3 h. Time points on graphs a-b are recorded every 15 min. The time points for graphs c-d represent every 30 min.
All buffers used for pH titrations were prepared in deionized water and brought to the appropriate pH with aqueous HCl or NaOH. The buffers used were 50 mM glycine (pH range 2.00-3.50), 50 mM NaOAc (pH range 4.00-5.60), 50 mM MES (pH range 5.60-6.80), 50 mM HEPES (pH range 6.80-8.20), 50 mM Tris (pH range 8.20-9.50) and 50 mM glycine (pH range 9.50-10.40). A 10 mM stock solution of formaldehyde for in vitro titration experiments was prepared by heating a suspension of paraformaldehyde (>88% w/w, 17.6 mg, 0.50 mmol, TCI, lot # NXR2B) in phosphate buffered saline (PBS) buffered to pH 7.4 (50 mL) at 88° C. for 1 hr. The solution was cooled to room temperature and filtered through a 0.22 μm syringe filter (Millex).
Nuclear magnetic resonance (NMR) spectra were recorded on Varian 400 or 500 MHz spectrometers at 25° C. Chemical shifts are reported in ppm (δ) and are referenced to residual protic peaks. The following abbreviations are used to describe coupling constants: singlet (s), doublet (d), triplet (t), quartet (q), doublet doublet (dd), doublet triplet (dt), doublet quartet (dq), doublet doublet triplet (ddt), multiplet (m), and broad singlet (bs). IR spectra were recorded with a PerkinElmer Spectrum Two infrared (IR) spectrometer. High-resolution mass spectra were acquired with a Waters Q-TOF Ultima ESI mass spectrometer and a Waters Synapt G2-Si ESI/LC-MS mass spectrometer. UV-visible spectra were recorded on a Cary 60 spectrometer. Fluorescence spectra were acquired on a QuantaMaster-400 scanning spectrofluorometer with micro fluorescence quartz cuvettes (Science Outlet). Flow cytometry was performed on a BD Biosciences LSR II (San Jose, Calif., USA), and the data were analyzed as described using FACSDiva software.
In addition to its ability to crosslink biomolecules, FA is cytotoxic through the induction of oxidative stress (Zararsiz et al., Cell Biochem. Fund. 2007, 25:413).

[2] = tested on: HEK293TN cells
Method: FIG. 9 depicts live-cell imaging of HEK293TN cells. […] Cells were irradiated with the 633 nm HeNe laser set at 3% power with a pinhole size of 1 airy unit. The emission was collected between 645 and 800 nm. Scale bar represents 20 μm. Pseudo-coloring represents intensity distribution from highest intensity indicated by white to the lowest intensity designated by black.
FIG. 10 depicts the quantification of observed fluorescence intensity by confocal imaging in HEK293TN cells after incubation with 1 mM, 2.5 mM or 5 mM FA for 1 (light grey bars), 2 (dark grey bars) and 3 hrs (black bars). A DMEM vehicle was added to control cells which was normalized to 1 (white bars). […] For each condition, a minimum of 5 images were averaged (n>5). Errors represent standard deviation.
HEK293TN cells were obtained from Prof. Paul Hergenrother (UIUC, Chemistry) and cultured in phenol-red free Dulbecco's modified eagle medium (DMEM, Corning) supplemented with 10% fetal bovine serum (FBS, Sigma Aldrich), and 1% penicillin/streptomycin (Corning). Neuroscreen-1 cells were obtained from Prof. Kai Zhang (UIUC, Biochemistry) and cultured in Ham's F-12K medium (Sigma Aldrich) supplemented with 15% horse serum (Hyclone), 2.5% fetal bovine serum (FBS, Sigma Aldrich), and 1% penicillin/streptomycin (Corning). Cells were incubated at 37° C. and 5% CO2. One day before imaging, cells were passed and plated on 8-well chambered coverglasses (Lab-Tek) at a density of 40,000 cells per mL (or 20,000 cells per well). Cells would reach 70-80% confluency before imaging. […] Samples of HEK293TN and NS1 cells for flow cytometry were prepared by passaging and seeding each well of a 6-well cluster culture dish (Cyto-One) with 300,000 cells one day before experiments. […] Stained cells were aspirated and serum-free DMEM added. Subsequently, a 10× concentrated FA solution was added to give a final concentration of 1.0 mM. 2.5 mM and 5 mM. After incubation cells with FA, the media was removed and replaced with serum-free DMEM. Finally, cells were trypsinized, pelleted via centrifugation, resuspended in phosphate-buffered saline (PBS) for flow cytometric analysis.
Prior to imaging, cells were allowed to recover in FA-free buffer for 30 min. […] Because FA is a powerful fixative, cell viability assays were performed to determine the cytotoxicity of FA under experimental conditions. A dye exclusion protocol was employed, utilizing trypan blue to selectively stain and distinguish dead cells from those that were viable. […] To further verify that the cell populations under investigation were indeed alive, DAPI, a cell permeable nuclear and chromosome counterstain, was employed to identify intact nuclei (FIG. 16).

[3] = tested on: HEK293TN and NS1 cells; details: 2 μM FP1, 1 μM tracker, both cell lines
From the text: Scale bar represents 20 μm.
For example, semicarbazide-sensitive amine oxidase (SSAO) is primarily localized to the plasma membrane (Andres et al., J. Histochem. Cytochem. 2001, 49:209). Thus, both HEK293TN and NS1 cells were costained with ER-Tracker Green, LysoTracker Green DND-26, and MitoTracker Green FM, fluorescent indicators that are known to selectively stain the endoplasmic reticulum, lysosome, and mitochondria, respectively in almost all cell types (FIG. 17A and FIG. 17B).

In the case of C=CCC(NCc1ccc([N+](=O)[O-])cc1)c1cn(C)c2cc(C)c(C3=C4C=CC(=O)C=C4[Si](C)(C)c4c3cc3c5c4CCCN5CCC3)cc12 (stereo not drawn) [FP1], the “fold increase in fluorescence intensity” value ([1]; 1 μM FP1, 0.1 mM FA, PBS pH 7.4, 37° C.) is reported as 3.9 fold, the fold fluorescence increase ([1]; 1 μM FP1, 0.25 mM FA, PBS pH 7.4, 37° C., 3 hrs) is reported as “ca. 7.0 fold” and the “fold increase in fluorescence intensity” value ([1]; 1 μM FP1, 0.5 mM FA, PBS pH 7.4, 37° C.) is reported as 8.5 fold. The “fold increase in fluorescence intensity” value ([1]; 1 μM FP1, 1 mM FA, PBS pH 7.4, 37° C.) was 12.8 fold and 11.6 fold, the “lower limit of detection of FP1” value ([1]; FA, after 3 hrs incubation at 37° C.) was 0.01 mM and the “fold increase in fluorescence intensity (confocal)” value (shortened to “fold increase … (confocal)”) ([2]; 2 μM FP1, 1 mM FA, 1 hr) was 1.2 fold. For the same molecule, the “fold increase … (confocal)” value ([2]; 2 μM FP1, 1 mM FA, 2 hrs) was 1.3 fold, the “fold increase … (confocal)” value ([2]; 2 μM FP1, 1 mM FA, 3 hrs) was 1.6 fold and the “fold increase … (confocal)” value ([2]; 2 μM FP1, 2.5 mM FA, 1 hr) was 1.2 fold. The “fold increase … (confocal)” value ([2]; 2 μM FP1, 2.5 mM FA, 2 hrs) was 1.7 fold, the “fold increase … (confocal)” value ([2]; 2 μM FP1, 2.5 mM FA, 3 hrs) was 2.2 fold and the “fold increase … (confocal)” value ([2]; 2 μM FP1, 5 mM FA, 1 hr) was 2.1 fold. The “fold increase … (confocal)” value ([2]; 2 μM FP1, 5 mM FA, 2 hrs) was 2.6 fold, the “fold increase … (confocal)” value ([2]; 2 μM FP1, 5 mM FA, 3 hrs) was ~3 fold and 2.9 fold and 2.8 fold and the “staining pattern (overlay with ER-Tracker Green)” value [3] was “stained the cytoplasm, as well as the endoplasmic reticulum”.
